Laboratory results published in a melting point compilation (Tetko et al.; mined from patent text by program, amines drawn as free bases though some values may be those of a salt).

SMILES	melting point [°C]
CCCc1c(OCCCCC2CC(=O)c3ccc(OCC(=O)O)c(CCC)c3O2)ccc(C(C)=O)c1O (stereo not drawn)	164 to 167
C=CCOc1cc([N+](=O)[O-])ccc1OCC1CO1 (stereo not drawn)	64
CCOC(=O)c1ccc(/C=C(\C)c2cc(OC)c3c(c2)C(C)(C)CC3(C)C)cc1	72 to 73
CC(C)(C)OC(=O)N1CCC(CCNC(=O)c2noc(-c3ccc(C#N)cc3)n2)CC1	138 to 139
NC(=O)N(O)Cc1cccs1	112
Cc1noc(NC(=O)N2CCN(c3cncc(-c4ccc(F)cc4F)c3)CC2)c1C	147 to 148
Cc1cccc(Cn2nnc(C(N)=O)c2N)c1	200 to 202
CCCCc1oc2ccccc2c1C(=O)NCc1ccc2c(-c3ccc(C)cc3)c(OCC#N)ccc2c1	114 to 117
CCCCc1nnc(S(=O)Cc2ccc([N+](=O)[O-])cc2)n1Cc1ccc(-c2ccccc2-c2nnn[nH]2)cc1 (stereo not drawn)	222 to 223
CCC1(CC(=O)O)CCCc2c1n(C)c1ccccc21 (stereo not drawn)	140 to 143
CCOC(=O)c1cn(-c2ccccc2)nc1OCc1ccc(OCc2nc(-c3ccccc3)oc2C)c(OC)c1	160 to 161
Cn1c(=O)c(Cl)nc2ccccc21	124 to 130
CNC(=O)[C@@H]1C[C@H](SCc2ccc(OC)cc2)CN1	53 to 54
Cc1noc(CCNC(c2ccccc2)(c2ccccc2)c2ccccc2)n1	100 to 101
Cc1nc[nH]c1CSCCNC(=N)NCCSCc1nccs1	149 to 151
O=C(O)c1ccc(N2C(=O)C3C4C=CC(C4)C3C2=O)cc1 (stereo not drawn)	224 to 228
O=C(O)C1Cc2c(c(Cl)cc3c(-c4ccccc4Cl)noc23)O1 (stereo not drawn)	220 to 222
COc1ccc2c(c1)C1(CCNC1)CC2O (stereo not drawn)	135 to 138
Cc1ccc(C)c2c1CN(NC(=S)NC(=O)c1ccccc1)C2	163 to 164
CCOC(=O)C(=Cc1cccn2cc(C(F)(F)F)nc12)N=[N+]=[N-]	140 to 142
O=C(O)CCCCCOc1nc(-c2ccccc2)cc(-c2ccccc2)n1	127 to 129
O=C(c1cccs1)c1cnn2c(-c3cccc(-c4nnn(CCN5CCCC5)n4)c3)ccnc12	98
Cn1c(C(=O)NC2CCCCC2)nc(-c2ccc(Cl)cc2Cl)c1-c1ccc(Cl)cc1	165
CS(=O)(=O)NC(=O)c1ccc(Cl)cc1NC(=O)c1cc(-c2ccc(Cl)cc2)oc1C(F)(F)F	259 to 262
COc1cc(-c2cc(C(F)(F)F)nn2-c2ccc(S(N)(=O)=O)cc2)ccc1-c1cocn1	143 to 145

More lines, now with the values ahead:

melting point [°C]	SMILES
121 to 123	COc1cc2c(cc1OC)CN(CCCCNC(=O)c1cc(I)ccc1OCCF)CC2
208 to 209	COc1nc2cccc(C(=O)O)c2n1Cc1ccc(-c2ccccc2-c2nnn[nH]2)cc1
139	Cc1cc(SC2=C(O)CC(CCc3ccc(O)cc3)(CCc3ccc(O)cc3)OC2=O)c(C(C)(C)C)cc1OS(=O)(=O)N(C)C
134 to 136	CC1(C)Cc2nsc(=Nc3c(F)cc(Cl)c4nc(Cl)sc34)n2C1
103	CC(NC(=O)n1c(=O)nc(N(C)C)n1C)c1ccccc1 (stereo not drawn)
67 to 69	COC(=O)C(C(C)C)N(C)S(=O)(=O)c1ccc(-c2ccc(NC(=O)c3cc4ccccc4o3)cc2)cc1 (stereo not drawn)
255 to 256	Cn1c(=O)c(-c2c(Cl)cccc2Cl)cc2cnc(Nc3ccc(Cl)cc3)nc21
120	CC(=O)N1CCC(C(=O)c2ccc(Br)cc2)CC1
174 to 175	COC(=O)c1ccc(NC(=O)/C=C/c2c(C)noc2-c2ccccc2)cc1
134 to 135	COc1nc(N)nc2c1CCC2
128 to 129	Cc1cc(C2=CC3(CC(C)(C)C2CO)SCCCS3)ccc1F (stereo not drawn)
> 300	Nc1nc2ccccc2c(=O)[nH]1
63 to 65	O=[N+]([O-])c1ccc(OCC(F)(F)F)c(OCC(F)(F)F)c1
